Source: patent publication US9056851B2, “Thiolactone antibiotics” (priority 2011, dated 2015)
Converted amounts (≈) assume the structure as drawn. Read-outs that look alike come from different tables or passages of the source.

Legend:
[1] = tested on: M. tuberculosis H37Rv; assay: MIC against M. tuberculosis; assay type: cell-based; details: Mycobacterium tuberculosis, read-out: MIC (μg/ml) M. tb (MIC99)
[2] = tested on: B. thialandensis Bt38; assay: MIC against B. thialandensis; assay type: cell-based; details: read-out: MIC (μg/ml) B. thialandensis Bt.38 (efflux^−)
[3] = tested on: S. aureus BAA1762; assay: MIC against S. aureus BAA1762 (MRSA); assay type: cell-based; details: Staphylococcus aureus, read-out: MIC (μg/ml) Staph. aureus BAA1762 MRSA
[4] = tested on: F. tularensis LVS; assay: microbe, parasite or virus in culture; assay type: cell-based; details: Francisella tularensis, read-out: MIC (μg/ml) F. tu
[5] = tested on: Y. pestis A1122; assay: microbe, parasite or virus in culture; assay type: cell-based; details: Yersinia pestis, A1122, read-out: MIC (μg/ml) Y. pestis
[6] = tested on: S. aureus RN4220; assay: MIC against S. aureus RN4220 (MSSA); assay type: cell-based; details: Staphylococcus aureus
[7] = tested on: B. pseudomallei Bp82z66; assay: microbe, parasite or virus in culture; assay type: cell-based; details: Burkholderia pseudomallei, BP82Z66, read-out: MIC (μg/ml) B. pseudomallei
[8] = tested on: mammalian FAS-I enzymes; details: selectivity versus FAS-II KAS enzymes; cited from earlier work
[9] = tested on: M. smegmatis MC^2155; assay: MIC against M. smegmatis; assay type: cell-based; details: Mycolicibacterium smegmatis, MC^2155, read-out: MIC (μg/ml) M. smeg
[10] = tested on: Pasteurella multocida; details: cited from earlier work
[11] = tested on: Salmonella enterides T-1; details: cited from earlier work
[12] = tested on: Shigella sonnei T1; details: cited from earlier work
[13] = in vivo; cited from earlier work
[14] = tested on: Serratia marcescens; details: cited from earlier work
[15] = tested on: Salmonella typhi; details: cited from earlier work
[16] = tested on: Staphylococcus aureus; details: cited from earlier work
[17] = tested on: E. coli No9; details: cited from earlier work
[18] = tested on: E. coli 11; details: cited from earlier work
[19] = tested on: Salmonella paratyphi; details: cited from earlier work
[20] = tested on: Klebsiella pneumoniae; details: cited from earlier work
[21] = in vivo; cited from earlier work; remark: listed apart in the source
[22] = rats, orally and by intramuscular injection; cited from earlier work
[23] = tested on: Serratia marcescens; details: urinary tract and oral infections; cited from earlier work
[24] = tested on: E. coli NIHJ; details: cited from earlier work
[25] = tested on: Klebsiella pneumoniae; details: urinary tract and oral infections; cited from earlier work
[26] = tested on: Shigella flexneri 2b T1; details: cited from earlier work
[27] = tested on: bacteria of Table 4; details: broad range of bacteria (Table 4); cited from earlier work
[28] = tested on: M. tuberculosis; details: cited from earlier work
[29] = MIC90, read-out: MIC (μg/ml) Staph. aureus RN4220 MSSA

SMILES: C=C/C(C)=C/[C@@]1(C)SC(=O)C(CCCCn2cc(CNC(=O)c3ccc(NS(=O)(=O)c4ccc(F)cc4)cc3)nn2)=C1O [TLM34]
- MIC99 ([1]; MIC99, H37Rv): 12.5 µg/mL (≈ 20 µM)
- MIC [2]: 250 µg/mL (≈ 400 µM)
- MIC ([3]; MIC90): > 100 µg/mL
- MIC [4]: 250 µg/mL (≈ 400 µM)
- MIC [5]: 250 µg/mL (≈ 400 µM)
- MIC [6, 29]: > 64 µg/mL

SMILES: C=C/C(C)=C/[C@@]1(C)SC(=O)C(C(C)=O)=C1O [TLM35]
- MIC99 ([1]; MIC99, H37Rv): 12.5 µg/mL (≈ 52.5 µM)
- MIC [7]: 155 µg/mL (≈ 649 µM)
- MIC ([3]; MIC90): 32 µg/mL (≈ 134 µM)
- MIC [4]: 8.78 µg/mL (≈ 36.8 µM)
- MIC [6, 29]: 64 µg/mL (≈ 269 µM)

SMILES: C=C/C(C)=C/[C@@]1(C)SC(=O)C(C(=O)C(F)(F)F)=C1O [TLM36]
- MIC99 ([1]; MIC99, H37Rv): > 100 µg/mL
- MIC [7]: 160 µg/mL (≈ 547 µM)
- MIC ([3]; MIC90): 64 µg/mL (≈ 219 µM)
- MIC [4]: 98.1 µg/mL (≈ 336 µM)
- MIC [6, 29]: > 64 µg/mL

SMILES: C=C/C(C)=C/[C@@]1(C)SC(=O)C(C(=O)OC)=C1O [TLM37]
- MIC99 ([1]; MIC99, H37Rv): 100 µg/mL (≈ 393 µM)
- MIC [7]: 160 µg/mL (≈ 631 µM)
- MIC ([3]; MIC90): > 64 µg/mL
- MIC [4]: 58.2 µg/mL (≈ 229 µM)
- MIC [6, 29]: > 64 µg/mL

SMILES: C=C/C(C)=C/[C@@]1(C)SC(=O)C(C(=O)CCC)=C1O [TLM38]
- MIC99 ([1]; MIC99, H37Rv): 12.5 µg/mL (≈ 46.9 µM)
- MIC [7]: 171 µg/mL (≈ 644 µM)
- MIC ([3]; MIC90): 32 µg/mL (≈ 120 µM)
- MIC [4]: 1.82 µg/mL (≈ 6.83 µM)
- MIC [6, 29]: 16 µg/mL (≈ 60.1 µM)

SMILES: C=C/C(C)=C/[C@@]1(C)SC(=O)C(C(=O)c2ccccc2C(=O)O)=C1O [TLM39]
- MIC99 ([1]; MIC99, H37Rv): > 100 µg/mL
- MIC [7]: 155 µg/mL (≈ 449 µM)
- MIC ([3]; MIC90): 32 µg/mL (≈ 92.9 µM)
- MIC [4]: 16 µg/mL (≈ 46.4 µM)
- MIC [6, 29]: 32 µg/mL (≈ 92.9 µM)

SMILES: C=C/C(C)=C/[C@@]1(C)SC(=O)C=C1OCC(=O)NCCN=[N+]=[N-] [TLM40]
- MIC99 ([1]; MIC99, H37Rv): > 100 µg/mL
- MIC [7]: > 256 µg/mL
- MIC ([3]; MIC90): > 64 µg/mL
- MIC [4]: 39.1 µg/mL (≈ 121 µM)
- MIC [6, 29]: > 64 µg/mL

SMILES: C=C/C(C)=C/[C@@]1(C)SC(=O)C=C1OCC(=O)NCCNC(=O)OC(C)(C)C [TLM41]
- MIC99 ([1]; MIC99, H37Rv): > 100 µg/mL
- MIC [7]: > 256 µg/mL
- MIC ([3]; MIC90): > 64 µg/mL
- MIC [4]: 54.5 µg/mL (≈ 137 µM)
- MIC [6, 29]: > 64 µg/mL

SMILES: C=C/C(C)=C/[C@@]1(C)SC(=O)C=C1OCC(=O)NCCn1cc(CNC(=O)c2ccc(NS(=O)(=O)c3ccc(F)cc3)cc2)nn1 [TLM42]
- MIC99 ([1]; MIC99, H37Rv): 100 µg/mL (≈ 153 µM)
- MIC [7]: 178 µg/mL (≈ 272 µM)
- MIC ([3]; MIC90): > 64 µg/mL
- MIC [4]: > 256 µg/mL
- MIC [6, 29]: > 64 µg/mL

SMILES: C=C/C(C)=C/[C@@]1(C)SC(=O)C(C(=O)CCCCCCCCCCCCCCC)=C1O [TLM43]
- MIC99 ([1]; MIC99, H37Rv): > 100 µg/mL
- MIC [7]: 1.36 µg/mL (≈ 3.13 µM)
- MIC ([3]; MIC90): 1 µg/mL (≈ 2.3 µM)
- MIC [6, 29]: 0.5 µg/mL (≈ 1.15 µM)

SMILES: C=C/C(C)=C/[C@@]1(C)SC(=O)C(C(=O)CCCCN=[N+]=[N-])=C1O [TLM44]
- MIC ([3]; MIC90): 16 µg/mL (≈ 49.8 µM)
- MIC [6, 29]: 16 µg/mL (≈ 49.8 µM)

SMILES: C=C/C(C)=C/[C@@]1(C)SC(=O)C(C(=O)CCCCc2ccc(-c3ccccc3)cc2)=C1O [TLM45]
- MIC99 ([1]; MIC99, H37Rv): 50 µg/mL (≈ 116 µM)
- MIC [7]: 4.58 µg/mL (≈ 10.6 µM)
- MIC ([3]; MIC90): 2 µg/mL (≈ 4.62 µM)
- MIC [4]: 0.21 µg/mL (≈ 0.485 µM)
- MIC [6, 29]: 0.5 µg/mL (≈ 1.16 µM)

SMILES: C=C/C(C)=C/[C@@]1(C)SC(=O)C(C)=C1O [TLM, 5R-(+)-Thiolactomycin]
- inhibition of mammalian FAS-I enzymes [8]: does not inhibit
- MIC [9]: 25 µg/mL (≈ 119 µM)
- MIC [10]: 0.2 µg/mL (≈ 0.951 µM)
- MIC [11]: 12.5 µg/mL (≈ 59.4 µM)
- MIC [12]: 100 µg/mL (≈ 476 µM)
- MIC99 ([1]; H37RV): 3.13 µg/mL (≈ 14.9 µM)
- toxicity [13]: low toxicity
- MIC [14]: 100 µg/mL (≈ 476 µM)
- MIC [15]: 12.5 µg/mL (≈ 59.4 µM)
- MIC [16]: 25 µg/mL (≈ 119 µM)
- MIC [17]: 100 µg/mL (≈ 476 µM)
- MIC [18]: 25 µg/mL (≈ 119 µM)
- MIC [19]: 50 µg/mL (≈ 238 µM)
- MIC [20]: 100 µg/mL (≈ 476 µM)
- bioavailability [21]: high bioavailability
- absorption [22]: rapidly absorbed
- MIC [7]: 13.1 µg/mL (≈ 62.4 µM)
- protection from infection [23]: provides protection
- MIC [3]: 75 µg/mL (≈ 357 µM)
- MIC [4]: 2.81 µg/mL (≈ 13.4 µM)
- MIC [24]: 200 µg/mL (≈ 951 µM)
- protection from infection [25]: provides protection
- MIC [5]: 8.09 µg/mL (≈ 38.5 µM)
- MIC ([6]; read-out: MIC (μg/ml) Staph. aureus RN4220 MSSA): 75 µg/mL (≈ 357 µM)
- MIC [26]: 6.3 µg/mL (≈ 30 µM)
- MIC values, range over organisms [27]: 6 to 200 µg/mL
- MIC [28]: 25 µg/mL (≈ 119 µM)
